Results published in ChEMBL document CHEMBL5137036, “Design and synthesis of highly TRAIL expression HDAC inhibitors based on ONC201 to promote apoptosis of colorectal cancer” (Eur J Med Chem, 2022).
Active and inactive are the calls of the source. The rule behind the calls is not given here.

Legend:
[1] = Toxicity in BALB/c mouse xenografted with human HCT-116 cells assessed as morphological changes in liver at 12.5 to 25 mg/kg, po qd administered for 21 days by H & E staining based microscopic analysis; format: organism-based; conditions: in vivo, 504 h, dose 12.5-25 mg/kg, time 21 day
Histone deacetylase 1 [2] = target: T1, Histone deacetylase 1 (Homo sapiens, UniProt Q13547); assay: Inhibition of HDAC1 in human HCT-116 cells assessed as increase in TRAIL protein expression at 0.5 uM incubated for 12 hrs by Western blot analysis; format: cell-based
HCT-116 [3] = assay: Effect on ac-H4 protein expression in human HCT-116 cells incubated for 12 hrs by Western blot analysis; format: functional, cell-based; conditions: dose 0.125-0.5 µM, DDE = dose-dependent effect
HCT-116 [4] = assay: Induction of apoptosis in human HCT-116 cells assessed as late apoptotic cells at 0.25 uM incubated for 24 hrs by AnnexinV-FITC/PI staining based flow cytometry (reference value: 0.82 %); format: functional
Histone deacetylase 2 = Histone deacetylase 2 (Homo sapiens, UniProt Q92769); assay: Inhibition of human HDAC2 using RHKKAc fluorogenic peptide as substrate preincubated for 10 mins followed by substrate addition by fluorescence based analysis
HCT-116 [5] = assay: Induction of apoptosis in human HCT-116 cells assessed as increase in Bax protein expression incubated for 12 hrs by Western blot analysis; format: functional, cell-based; conditions: dose 0.125-0.5 µM, DDE = dose-dependent effect
HCT-116 [6] = assay: Induction of cell cycle arrest in human HCT-116 cells assessed as accumulation of cells at S phase incubated for 12 hrs by propidium iodide staining based flow cytometric analysis; format: functional; conditions: dose 0.125-0.5 µM, DDE = dose-dependent effect
Histone deacetylase 4 = Histone deacetylase 4 (Homo sapiens, UniProt P56524); assay: Inhibition of human HDAC4 using Boc-Lys(trifluoroacetyl)-AMC as fluorogenic substrate preincubated for 10 mins followed by substrate addition by fluorescence based analysis
HCT-116 [7] = assay: Effect on ac-H3 protein expression in human HCT-116 cells incubated for 12 hrs by Western blot analysis; format: functional, cell-based; conditions: dose 0.125-0.5 µM, DDE = dose-dependent effect
Histone deacetylase 1 [8] = target: T1, Histone deacetylase 1; assay: Inhibition of HDAC1 in human HCT-116 cells assessed as increase in DR5 protein expression at 0.5 uM incubated for 12 hrs by Western blot analysis; format: cell-based
HCT-116 [9] = assay: Induction of apoptosis in human HCT-116 cells assessed as viable cells at 0.125 uM incubated for 24 hrs by AnnexinV-FITC/PI staining based flow cytometry (reference value: 93.64%); format: functional; conditions: read-out: Activity
HCT-116 [10] = assay: Antitumor activity against human HCT-116 cells xenografted in BALB/c mouse assessed as reduction in tumor growth at 50 mg/kg, po qd administered for 3 weeks and measured every 3 days by vernier caliper analysis; format: functional, organism-based
[11] = Toxicity in BALB/c mouse xenografted with human HCT-116 cells assessed as morphological changes in heart at 12.5 to 25 mg/kg, po qd administered for 21 days by H & E staining based microscopic analysis; format: organism-based; conditions: in vivo, 504 h, dose 12.5-25 mg/kg, time 21 day
HCT-116 [12] = assay: Antitumor activity against human HCT-116 cells xenografted in BALB/c mouse assessed as reduction in tumor growth at 12.5 mg/kg, po qd administered for 3 weeks and measured every 3 days by vernier caliper analysis; format: functional, organism-based
[13] = Toxicity in BALB/c mouse xenografted with human HCT-116 cells assessed as morphological changes in kidney at 12.5 to 25 mg/kg, po qd administered for 21 days by H & E staining based microscopic analysis; format: organism-based; conditions: in vivo, 504 h, dose 12.5-25 mg/kg, time 21 day
HCT-116 [14] = assay: Induction of apoptosis in human HCT-116 cells assessed as decrease in Bcl2 protein expression incubated for 12 hrs by Western blot analysis; format: functional, cell-based; conditions: dose 0.125-0.5 µM, DDE = dose-dependent effect
HCT-116 [15] = assay: Induction of apoptosis in human HCT-116 cells assessed as dead cells at 0.25 uM incubated for 24 hrs by AnnexinV-FITC/PI staining based flow cytometry (reference value: 4.62 %); format: functional
HCT-116 [16] = assay: Induction of apoptosis in human HCT-116 cells assessed as dead cells at 0.125 uM incubated for 24 hrs by AnnexinV-FITC/PI staining based flow cytometry (reference value: 4.62 %); format: functional
HCT-116 [17] = assay: Induction of apoptosis in human HCT-116 cells assessed as late apoptotic cells at 0.5 uM incubated for 24 hrs by AnnexinV-FITC/PI staining based flow cytometry (reference value: 0.82 %); format: functional
[18] = Toxicity in BALB/c mouse xenografted with human HCT-116 cells assessed as morphological changes in spleen at 12.5 to 25 mg/kg, po qd administered for 21 days by H & E staining based microscopic analysis; format: organism-based; conditions: in vivo, 504 h, dose 12.5-25 mg/kg, time 21 day
HCT-116 [19] = assay: Upregulation of DR5 mRNA expression in human HCT-116 cells at 0.25 uM incubated for 12 hrs by RT-PCR analysis; format: functional, cell-based
MV4-11 = assay: Antiproliferative activity against human MV4-11 cells assessed as inhibition of cell growth incubated for 72 hrs by luminescence based analysis; format: functional; conditions: MV4-11, 72 h
Histone deacetylase 11 = target: T2, Histone deacetylase 11 (Homo sapiens, UniProt Q96DB2); assay: Inhibition of human HDAC11 using Boc-Lys(trifluoroacetyl)-AMC as fluorogenic substrate preincubated for 10 mins followed by substrate addition by fluorescence based analysis
T2 sequence (Q96DB2 whole entry): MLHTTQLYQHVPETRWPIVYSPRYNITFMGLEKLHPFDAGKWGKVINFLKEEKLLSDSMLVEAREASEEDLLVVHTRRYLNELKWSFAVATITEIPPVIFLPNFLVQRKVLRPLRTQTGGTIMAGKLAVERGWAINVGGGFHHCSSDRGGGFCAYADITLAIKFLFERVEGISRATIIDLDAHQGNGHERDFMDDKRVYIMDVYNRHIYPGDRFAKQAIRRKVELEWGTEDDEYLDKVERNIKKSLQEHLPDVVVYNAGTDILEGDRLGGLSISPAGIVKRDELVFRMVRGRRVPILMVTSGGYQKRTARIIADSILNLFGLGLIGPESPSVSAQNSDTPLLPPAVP

HCT-116 [20] = assay: Induction of apoptosis in human HCT-116 cells assessed as early apoptotic cells at 0.25 uM incubated for 24 hrs by AnnexinV-FITC/PI staining based flow cytometry (reference value: 0.93 %); format: functional
[21] = target: Histone deacetylase 3/Nuclear receptor corepressor 2 (HDAC3/NCoR2) (Homo sapiens, UniProt O15379); assay: Inhibition of human HDAC3/NcoR2 using RHKKAc fluorogenic peptide as substrate preincubated for 10 mins followed by substrate addition by fluorescence based analysis; format: protein-complex assay
Histone deacetylase 1 [22] = target: T1, Histone deacetylase 1; assay: Inhibition of HDAC1 in human HCT-116 cells assessed as increase in Ac-H4 acetylation at 0.5 uM incubated for 12 hrs by Western blot analysis; format: cell-based
HCT-116 [23] = assay: Antitumor activity against human HCT-116 cells xenografted in BALB/c mouse assessed as reduction in tumor growth by measuring T/C ratio at 25 mg/kg, po qd administered for 3 weeks and measured every 3 days by vernier caliper analysis; format: functional
HCT-116 [24] = assay: Effect on HDAC1 protein expression in human HCT-116 cells incubated for 12 hrs by Western blot analysis; format: functional, cell-based; conditions: dose 0.125-0.5 µM, DDE = dose-dependent effect

T1 sequence (Q13547 whole entry): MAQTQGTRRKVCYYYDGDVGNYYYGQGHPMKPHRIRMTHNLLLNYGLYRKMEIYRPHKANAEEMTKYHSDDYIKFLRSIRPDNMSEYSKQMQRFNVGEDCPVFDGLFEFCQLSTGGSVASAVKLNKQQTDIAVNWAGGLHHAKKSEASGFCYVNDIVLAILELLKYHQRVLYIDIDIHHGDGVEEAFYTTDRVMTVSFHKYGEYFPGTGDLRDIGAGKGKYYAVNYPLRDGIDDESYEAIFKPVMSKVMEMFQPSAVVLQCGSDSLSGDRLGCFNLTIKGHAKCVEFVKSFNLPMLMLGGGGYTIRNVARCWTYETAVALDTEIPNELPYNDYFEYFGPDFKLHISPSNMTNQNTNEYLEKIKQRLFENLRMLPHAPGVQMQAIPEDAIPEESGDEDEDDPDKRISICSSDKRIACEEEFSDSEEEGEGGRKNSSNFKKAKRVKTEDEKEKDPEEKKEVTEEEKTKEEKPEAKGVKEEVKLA
Sequence of Histone deacetylase 3/Nuclear receptor corepressor 2 (HDAC3/NCoR2) (O15379 whole entry): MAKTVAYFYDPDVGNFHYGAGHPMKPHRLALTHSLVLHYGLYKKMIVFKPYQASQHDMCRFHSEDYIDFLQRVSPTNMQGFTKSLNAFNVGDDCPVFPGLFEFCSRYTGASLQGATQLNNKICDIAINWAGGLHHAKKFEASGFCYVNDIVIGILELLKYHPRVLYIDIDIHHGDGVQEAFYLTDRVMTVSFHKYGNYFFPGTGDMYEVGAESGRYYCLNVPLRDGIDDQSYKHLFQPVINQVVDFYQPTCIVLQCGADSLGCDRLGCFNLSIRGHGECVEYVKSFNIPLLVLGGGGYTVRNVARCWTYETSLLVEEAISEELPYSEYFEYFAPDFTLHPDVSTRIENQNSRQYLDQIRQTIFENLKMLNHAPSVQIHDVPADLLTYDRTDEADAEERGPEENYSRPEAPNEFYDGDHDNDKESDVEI
Sequence of Histone deacetylase 3/Nuclear receptor corepressor 2 (HDAC3/NCoR2) (Q9Y618 whole entry, further chain): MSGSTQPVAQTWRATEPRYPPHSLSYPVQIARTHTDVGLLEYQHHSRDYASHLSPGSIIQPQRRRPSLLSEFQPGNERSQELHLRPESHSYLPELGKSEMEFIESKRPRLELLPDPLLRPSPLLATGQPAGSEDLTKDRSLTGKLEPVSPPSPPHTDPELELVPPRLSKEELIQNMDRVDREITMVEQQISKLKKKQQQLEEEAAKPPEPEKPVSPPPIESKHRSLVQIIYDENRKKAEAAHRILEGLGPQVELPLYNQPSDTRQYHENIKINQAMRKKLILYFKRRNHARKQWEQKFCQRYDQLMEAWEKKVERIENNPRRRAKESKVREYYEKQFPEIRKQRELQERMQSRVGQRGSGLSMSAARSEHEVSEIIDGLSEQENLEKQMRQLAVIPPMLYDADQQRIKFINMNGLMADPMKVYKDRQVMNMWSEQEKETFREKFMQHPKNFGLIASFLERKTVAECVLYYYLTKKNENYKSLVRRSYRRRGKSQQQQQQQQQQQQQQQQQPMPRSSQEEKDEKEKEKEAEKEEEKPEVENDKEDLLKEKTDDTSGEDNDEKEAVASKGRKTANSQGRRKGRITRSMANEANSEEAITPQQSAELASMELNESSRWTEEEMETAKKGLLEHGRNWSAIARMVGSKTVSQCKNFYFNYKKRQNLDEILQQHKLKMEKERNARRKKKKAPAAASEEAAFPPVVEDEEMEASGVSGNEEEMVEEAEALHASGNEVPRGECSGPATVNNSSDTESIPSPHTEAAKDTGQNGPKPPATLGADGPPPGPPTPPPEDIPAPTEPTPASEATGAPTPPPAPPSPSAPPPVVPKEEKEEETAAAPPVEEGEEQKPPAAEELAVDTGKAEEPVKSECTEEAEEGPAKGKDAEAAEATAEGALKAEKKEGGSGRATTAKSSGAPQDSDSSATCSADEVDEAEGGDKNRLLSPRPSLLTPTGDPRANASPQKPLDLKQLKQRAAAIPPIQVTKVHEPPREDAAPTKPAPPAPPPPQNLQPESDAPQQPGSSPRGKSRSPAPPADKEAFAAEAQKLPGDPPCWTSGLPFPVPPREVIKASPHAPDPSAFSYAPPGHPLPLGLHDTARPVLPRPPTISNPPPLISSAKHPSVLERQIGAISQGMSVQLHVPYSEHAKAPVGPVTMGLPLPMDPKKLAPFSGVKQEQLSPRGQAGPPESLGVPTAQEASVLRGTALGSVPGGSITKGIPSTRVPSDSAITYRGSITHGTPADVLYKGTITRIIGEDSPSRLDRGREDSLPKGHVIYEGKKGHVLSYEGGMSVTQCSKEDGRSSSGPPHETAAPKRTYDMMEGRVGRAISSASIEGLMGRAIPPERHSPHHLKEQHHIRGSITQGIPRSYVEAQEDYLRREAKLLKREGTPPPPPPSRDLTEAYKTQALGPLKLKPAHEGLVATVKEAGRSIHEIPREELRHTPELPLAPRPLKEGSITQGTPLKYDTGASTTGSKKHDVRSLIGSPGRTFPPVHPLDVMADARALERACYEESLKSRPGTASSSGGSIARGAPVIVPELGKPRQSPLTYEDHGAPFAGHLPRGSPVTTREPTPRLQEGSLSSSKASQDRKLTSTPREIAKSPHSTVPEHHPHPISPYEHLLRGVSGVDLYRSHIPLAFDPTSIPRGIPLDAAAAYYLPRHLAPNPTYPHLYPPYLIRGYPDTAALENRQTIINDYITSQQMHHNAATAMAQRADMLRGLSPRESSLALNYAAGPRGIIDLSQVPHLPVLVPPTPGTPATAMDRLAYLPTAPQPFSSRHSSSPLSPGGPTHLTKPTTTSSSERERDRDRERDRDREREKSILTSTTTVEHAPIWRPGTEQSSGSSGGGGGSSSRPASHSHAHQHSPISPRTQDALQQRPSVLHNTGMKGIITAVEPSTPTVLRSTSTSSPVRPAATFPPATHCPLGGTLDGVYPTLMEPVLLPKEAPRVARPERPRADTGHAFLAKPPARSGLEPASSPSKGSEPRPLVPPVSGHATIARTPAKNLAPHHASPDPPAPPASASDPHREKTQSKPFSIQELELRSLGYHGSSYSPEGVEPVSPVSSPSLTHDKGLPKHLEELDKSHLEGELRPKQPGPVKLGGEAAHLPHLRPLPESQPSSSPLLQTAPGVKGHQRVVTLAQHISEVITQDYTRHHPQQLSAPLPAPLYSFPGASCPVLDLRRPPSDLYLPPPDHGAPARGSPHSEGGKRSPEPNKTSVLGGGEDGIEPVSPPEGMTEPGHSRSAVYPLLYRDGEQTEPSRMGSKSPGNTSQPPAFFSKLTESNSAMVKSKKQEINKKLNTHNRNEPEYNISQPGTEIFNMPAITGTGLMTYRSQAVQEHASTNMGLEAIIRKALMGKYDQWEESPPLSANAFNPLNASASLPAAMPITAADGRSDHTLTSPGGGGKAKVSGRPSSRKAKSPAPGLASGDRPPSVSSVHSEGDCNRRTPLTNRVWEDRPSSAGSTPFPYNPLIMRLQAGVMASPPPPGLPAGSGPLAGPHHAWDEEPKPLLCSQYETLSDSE
Sequence of Histone deacetylase 4 (P56524 whole entry): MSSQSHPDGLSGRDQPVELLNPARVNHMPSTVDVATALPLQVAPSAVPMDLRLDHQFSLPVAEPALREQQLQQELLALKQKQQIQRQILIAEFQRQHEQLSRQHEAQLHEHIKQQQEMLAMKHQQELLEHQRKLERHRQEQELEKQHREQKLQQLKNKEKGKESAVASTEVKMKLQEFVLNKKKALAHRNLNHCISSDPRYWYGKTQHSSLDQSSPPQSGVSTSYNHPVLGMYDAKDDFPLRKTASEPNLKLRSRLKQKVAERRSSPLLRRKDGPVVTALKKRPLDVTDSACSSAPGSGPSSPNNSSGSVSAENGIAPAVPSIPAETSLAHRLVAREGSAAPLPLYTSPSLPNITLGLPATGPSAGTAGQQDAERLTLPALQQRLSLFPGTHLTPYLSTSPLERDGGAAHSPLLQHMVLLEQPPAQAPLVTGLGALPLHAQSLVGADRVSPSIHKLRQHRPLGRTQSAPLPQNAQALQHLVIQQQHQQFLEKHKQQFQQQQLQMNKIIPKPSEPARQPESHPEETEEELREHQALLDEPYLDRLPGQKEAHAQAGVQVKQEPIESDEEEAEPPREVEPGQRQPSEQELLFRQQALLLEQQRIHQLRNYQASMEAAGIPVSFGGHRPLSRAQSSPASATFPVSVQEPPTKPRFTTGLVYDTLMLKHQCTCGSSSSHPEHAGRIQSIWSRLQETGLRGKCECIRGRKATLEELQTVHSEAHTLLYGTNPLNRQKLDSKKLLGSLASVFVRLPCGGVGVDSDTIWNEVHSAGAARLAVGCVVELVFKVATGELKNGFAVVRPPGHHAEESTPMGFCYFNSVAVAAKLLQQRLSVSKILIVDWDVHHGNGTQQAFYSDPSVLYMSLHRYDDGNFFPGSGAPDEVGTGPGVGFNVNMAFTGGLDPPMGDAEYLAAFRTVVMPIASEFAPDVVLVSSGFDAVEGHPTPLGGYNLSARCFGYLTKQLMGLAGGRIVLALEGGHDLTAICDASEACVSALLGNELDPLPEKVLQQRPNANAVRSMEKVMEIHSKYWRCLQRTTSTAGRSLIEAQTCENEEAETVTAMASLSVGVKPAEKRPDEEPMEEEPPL
Sequence of Histone deacetylase 2 (Q92769 whole entry): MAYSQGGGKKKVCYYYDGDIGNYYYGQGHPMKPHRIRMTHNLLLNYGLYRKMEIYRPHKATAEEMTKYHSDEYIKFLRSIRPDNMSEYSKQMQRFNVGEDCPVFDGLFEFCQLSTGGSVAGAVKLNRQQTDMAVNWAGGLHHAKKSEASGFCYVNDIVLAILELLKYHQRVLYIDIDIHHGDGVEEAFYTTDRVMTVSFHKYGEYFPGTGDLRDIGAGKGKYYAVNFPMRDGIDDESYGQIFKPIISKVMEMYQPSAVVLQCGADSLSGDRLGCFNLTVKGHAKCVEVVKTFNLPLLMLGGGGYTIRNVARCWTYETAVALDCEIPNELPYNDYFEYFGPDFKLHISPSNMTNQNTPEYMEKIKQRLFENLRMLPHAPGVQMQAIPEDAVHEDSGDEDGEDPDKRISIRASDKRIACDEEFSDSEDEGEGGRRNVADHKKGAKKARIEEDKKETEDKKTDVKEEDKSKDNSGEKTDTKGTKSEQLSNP

In the case of `COc1ccccc1CN1C(=O)C2=C(CCN(Cc3ccc(C(=O)Nc4ccccc4N)cc3)C2)N2CCN=C12`, the Activity [1] is reported as “Non-Toxic”, the inhibition (Histone deacetylase 1 [2]) is reported as “Active” and the Activity (HCT-116 [3]) is reported as “Dde”. For the same compound, the Activity (HCT-116 [4]) was 1.82%, the IC50 (Histone deacetylase 2) was 346 nM and the Activity (HCT-116 [5]) was “Dde”. The Activity (HCT-116 [6]) was “Dde”, the IC50 (Histone deacetylase 4) was > 10000 nM and the Activity (HCT-116 [7]) was “Dde”. The inhibition (Histone deacetylase 1 [8]) was “Active”, the viability at 0.125 µM (HCT-116 [9]) was 91.5% and the Activity (HCT-116 [10]) was “Active”. For the same compound, the Activity [11] was “Non-Toxic”, the Activity (HCT-116 [12]) was “Active” and the Activity [13] was “Non-Toxic”. The Activity (HCT-116 [14]) was “Dde”, the Activity (HCT-116 [15]) was 4.06% and the Activity (HCT-116 [16]) was 6.33%. For the same compound, the Activity (HCT-116 [17]) was 2%, the Activity [18] was “Non-Toxic” and the Activity (HCT-116 [19]) was “Active”. For the same compound, the IC50 (MV4-11) was 563 nM, the IC50 (Histone deacetylase 11) was > 10000 nM and the Activity (HCT-116 [20]) was 1.18%. The IC50 [21] was 589 nM, the inhibition (Histone deacetylase 1 [22]) was “Active” and the T/C (HCT-116 [23]) was 0.33. The Activity (HCT-116 [24]) was “Dde”.
